Results from patent publication US20040192680A1, “Novel amides that activate soluble guanylate cyclase” (priority 2002, published 2004).

Target: T1, soluble guanylate cyclase (α1 and β1 subunits of guanylate cyclase, expressed in Sf9 cells) (Homo sapiens, UniProt Q02108+Q02153)
T1 construct: made in house; host or cells: Sf9 insect cells (baculovirus co-infection); high-speed supernatant used unpurified
T1 sequence (Q02108 1-690): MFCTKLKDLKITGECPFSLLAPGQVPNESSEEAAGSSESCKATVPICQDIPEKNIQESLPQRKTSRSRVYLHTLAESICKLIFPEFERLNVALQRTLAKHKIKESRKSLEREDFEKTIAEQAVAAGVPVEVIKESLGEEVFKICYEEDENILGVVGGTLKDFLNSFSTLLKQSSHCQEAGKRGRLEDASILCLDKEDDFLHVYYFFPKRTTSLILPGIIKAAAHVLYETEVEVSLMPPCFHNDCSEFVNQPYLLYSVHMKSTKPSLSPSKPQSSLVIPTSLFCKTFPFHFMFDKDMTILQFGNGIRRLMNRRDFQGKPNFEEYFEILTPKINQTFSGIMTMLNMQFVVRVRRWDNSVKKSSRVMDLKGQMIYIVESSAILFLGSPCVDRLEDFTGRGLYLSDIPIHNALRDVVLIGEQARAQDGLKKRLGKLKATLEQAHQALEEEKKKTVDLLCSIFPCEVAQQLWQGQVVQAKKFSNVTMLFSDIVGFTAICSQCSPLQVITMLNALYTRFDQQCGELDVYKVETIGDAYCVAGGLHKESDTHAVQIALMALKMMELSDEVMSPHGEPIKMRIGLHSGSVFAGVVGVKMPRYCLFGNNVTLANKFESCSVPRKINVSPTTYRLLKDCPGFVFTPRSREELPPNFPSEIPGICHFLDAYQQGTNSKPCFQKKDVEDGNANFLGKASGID
T1 sequence (Q02153 1-619): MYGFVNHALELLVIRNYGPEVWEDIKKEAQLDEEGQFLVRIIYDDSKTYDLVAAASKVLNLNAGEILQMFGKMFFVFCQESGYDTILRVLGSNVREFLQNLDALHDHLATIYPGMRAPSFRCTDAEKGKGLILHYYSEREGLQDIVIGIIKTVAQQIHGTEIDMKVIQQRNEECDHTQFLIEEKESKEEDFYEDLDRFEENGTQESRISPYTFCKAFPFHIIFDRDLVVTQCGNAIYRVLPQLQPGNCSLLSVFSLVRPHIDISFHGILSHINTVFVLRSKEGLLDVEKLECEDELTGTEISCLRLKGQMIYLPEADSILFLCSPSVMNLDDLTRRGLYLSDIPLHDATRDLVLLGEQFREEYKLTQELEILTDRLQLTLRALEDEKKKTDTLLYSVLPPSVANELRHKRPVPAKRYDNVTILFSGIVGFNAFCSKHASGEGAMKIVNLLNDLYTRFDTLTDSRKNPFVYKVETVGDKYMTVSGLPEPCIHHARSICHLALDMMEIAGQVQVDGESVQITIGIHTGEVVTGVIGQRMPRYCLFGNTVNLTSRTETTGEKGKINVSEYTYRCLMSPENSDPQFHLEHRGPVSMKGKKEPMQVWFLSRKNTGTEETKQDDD
Test: Guanylate Cyclase Assay (formation of cyclic GMP from GTP, with and without SNP)
Format: biochemical
Conditions: compound at 100 μM without SNP; normalized with the activity of 100 μM YC-1 (without SNP) as 100%
Procedure: Sf9 cells were cultured in Sf-90011 medium supplemented with 10% (v/v) fetal calf serum at 28° C. to give a count of 6×10^5 cells/ml. The cells were then infected with a mixture of the virus stocks for the α1 and β1 subunits of guanylate cyclase at a multiplicity of infection of 0.1 pfu/cell. The cells were harvested 72 hours after infection and were pelleted by centrifugation. The resulting cell pellets were homogenized with Polytron homogenizer in 3 volumes of 20 mM Tris-HCl (pH 7.6) containing 1 mM EDTA, 5 mM dithiothreitol, 90 mM NaCl, 10% glycerol, and protease inhibitors mix (Roche Molecular Biochemicals). The homogenate was centrifuged at 50,000×g for 60 minutes and the supernatant was aliquotted and stored at −80° C. […]
Guanylate cyclase activity was measured by the formation of cyclic GMP from GTP in a total volume of 100 μl. […] The solution was centrifuged at 3000 rpm for 15 minutes at room temperature and cyclic GMP in 20 μl of the resulting supernatant was measured according to the protocol of Amersham cyclic GMP enzymeimmunoassay system (purchased from Sigma, catalogue number RPN 226).
Compounds of the present invention were tested at 100 μM with and without 1 μM sodium nitro prusside (SNP). […] Mean basal efficacy, in Table 1, was expressed as a percentage of 100 μM YC-1 (without SNP). […]

SMILES: CC(O)CCNC(=O)/C=C/c1ccccc1Sc1ccc(Cl)cc1 (stereo not shown) [Example 38, (2E)-3-{2-[(4-chlorophenyl)thio]pheny}-N-(3-hydroxybutyl)acrylamide]
- Mean basal efficacy of compound alone at 100 μM, [%]: 60%
